Here are results for nine compounds from ChEMBL document CHEMBL1201862, “PubChem BioAssay data set” (2004).

Some test systems named below: 786-0; A498; A549; CAKI-1; CCRF-CEM; HCT-116; HOP-62; IGROV-1; K562; M14; RXF 393; SF-539; TK-10; UACC-62; UO-31; NCI-H522; SN12C; LOX IMVI.
Test in all cases: growth of human tumour cells (NCI), 48 h

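Exposure lasted 48 hours, with cells grown in 96-well plates and compounds tested at five concentrations. GI50 marks 50% less growth.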 Activity calls are given as the source filed them. No stated cut-off is given here; in the data, active = GI50 up to about 1.1 µM and inactive = higher.

For the compound `Cc1[nH]c2ccccc2c1/C=C/c1c(C)[nH]c2ccccc12`, the GI50 with 786-0 was > 100 µM (inactive); with A498, > 100 µM (inactive); with A549, > 100 µM (inactive); with CAKI-1, > 100 µM (inactive); with CCRF-CEM, 20.7 µM (inactive); in the test with HCT-116, > 100 µM (inactive). The GI50 in the test with HOP-62, in the test with IGROV-1, in the test with K562, in the test on M14, in the test on RXF 393 and in the test with SF-539 was > 100 µM (inactive) each time. The GI50 in the test with TK-10, in the test with UACC-62 and in the test with UO-31 was > 100 µM (inactive) each time.
Regarding `O=C1c2ccccc2C(=O)N1C/C=N/NS(=O)(=O)c1ccc(Br)cc1`, the GI50 in the test on 786-0 was > 100 µM (inactive); in the test with A498, > 100 µM (inactive); in the test on A549, > 100 µM (inactive); in the test on CAKI-1, 74.1 µM (inactive); in the test with CCRF-CEM it was > 100 µM (inactive); with HCT-116, > 100 µM (inactive). For the same compound, the GI50 with HOP-62, with IGROV-1, with K562, in the test on M14, with NCI-H522 and in the test with SF-539 was > 100 µM (inactive) throughout. For the same compound, the GI50 in the test on SN12C, in the test with TK-10, with UACC-62 and in the test with UO-31 was > 100 µM (inactive) each time.
With `Cc1c(NC(=O)C(C)(C)Br)c(=O)oc2c(C)c3occc(=O)c3cc12`, the GI50 is 53.7 µM (inactive) in the test with 786-0; 18.1 µM (inactive) with A498; 68.5 µM (inactive) with A549; 28.2 µM (inactive) in the test on CCRF-CEM; 59.4 µM (inactive) with HCT-116; 29.6 µM (inactive) in the test on HOP-62. Besides, the GI50 in the test on IGROV-1 is 57 µM (inactive); with K562, 64.3 µM (inactive); in the test on LOX IMVI, 76.9 µM (inactive); with M14, 48.9 µM (inactive); in the test on RXF 393 it was 55.3 µM (inactive); in the test on SF-539 it was 43.7 µM (inactive). Moreover, the GI50 with SN12C was 52.4 µM (inactive); with TK-10, > 100 µM (inactive); in the test on UACC-62, 67.5 µM (inactive); in the test on UO-31 it was 21.3 µM (inactive).
Take `Cc1cccc(-c2nc3c(C(=O)NCCN(C)C)cccc3[nH]2)c1`: the GI50 in the test on 786-0 was 1.59 µM (inactive); with A498, 1.54 µM (inactive); in the test with A549, 1.1 µM (active); with CAKI-1 it was 2.23 µM (inactive); in the test with CCRF-CEM, 1.02 µM (active); in the test on HCT-116 it was 0.329 µM (active). For the same compound, the GI50 in the test with HOP-62 was 1.72 µM (inactive); in the test on IGROV-1 it was 0.83 µM (active); in the test on K562, 0.863 µM (active); with LOX IMVI it was 0.708 µM (active); with M14, 1.63 µM (inactive); in the test with RXF 393 it was 1.19 µM (inactive). The GI50 is 0.724 µM (active) with SF-539; 0.65 µM (active) in the test on SN12C; 1.37 µM (inactive) in the test on TK-10; 1.8 µM (inactive) in the test with UACC-62; 2.06 µM (inactive) in the test on UO-31.
With `COC(=O)CCC(=O)N1Cc2cc(C)ccc2N(C(=O)CCC(=O)OC)Cc2cc(C)ccc21`, the GI50 with 786-0, in the test on A549, in the test on CAKI-1, with CCRF-CEM, in the test on HCT-116 and in the test with HOP-62 was > 100 µM (inactive) in each case. Moreover, the GI50 in the test with IGROV-1, in the test with K562, in the test with LOX IMVI, in the test on M14, with NCI-H522 and in the test with RXF 393 was > 100 µM (inactive) throughout. In addition, the GI50 with SF-539, in the test with SN12C, in the test with TK-10, in the test on UACC-62 and in the test with UO-31 was > 100 µM (inactive) in each case.
On to `O=c1[nH]c(=O)n(C2OC(CO)C(N(O)Cc3ccc(F)cc3)C2O)cc1Br` (stereo not drawn), for which the GI50 with 786-0, in the test on A498, in the test with A549, in the test with CCRF-CEM, in the test on HCT-116 and with IGROV-1 was > 100 µM (inactive) throughout. Further, the GI50 with K562 was > 100 µM (inactive); in the test with LOX IMVI, > 100 µM (inactive); with M14 it was > 100 µM (inactive); in the test on NCI-H522, 13.2 µM (inactive); in the test on RXF 393, > 100 µM (inactive); in the test on SF-539, > 100 µM (inactive). The GI50 in the test with SN12C, with TK-10, in the test with UACC-62 and in the test on UO-31 was > 100 µM (inactive) throughout.
Regarding `CCOC(=O)C(C)Sc1nnc(COc2ccc(Cl)cc2)n1-c1ccccc1` (stereo not drawn), the GI50 in the test on 786-0 is 29.6 µM (inactive); with A549, 43.7 µM (inactive); in the test with CAKI-1, 16.2 µM (inactive); with CCRF-CEM, 14.5 µM (inactive); in the test with HCT-116, 21.4 µM (inactive); in the test with HOP-62, 21.4 µM (inactive). Also, the GI50 in the test with IGROV-1 was 26.8 µM (inactive); with K562, 13.6 µM (inactive); in the test on LOX IMVI, 14.3 µM (inactive); in the test with M14 it was 16.9 µM (inactive); in the test on NCI-H522, 1.82 µM (inactive); in the test on RXF 393 it was 22.9 µM (inactive). Moreover, the GI50 with SF-539 was 21.4 µM (inactive); in the test with SN12C, 17.9 µM (inactive); in the test on TK-10, 27.5 µM (inactive); in the test on UACC-62 it was 17.3 µM (inactive); in the test on UO-31, 14.7 µM (inactive).
In the case of `CS(=O)(=O)OCCCOS(C)(=O)=O`, the GI50 in the test on 786-0, in the test with A498, in the test on A549, in the test with CCRF-CEM, with HCT-116 and in the test with HOP-62 was > 100 µM (inactive) in each case. Further, the GI50 with IGROV-1, in the test on K562, in the test with LOX IMVI, in the test on M14, with NCI-H522 and in the test with RXF 393 was > 100 µM (inactive) throughout. The GI50 in the test on SF-539, in the test with SN12C, with TK-10, in the test with UACC-62 and in the test with UO-31 was > 100 µM (inactive) each time.
On to `COC(=O)CC(=O)OC1C[C@@H]2CCC3C(C)(C)CCC[C@]3(C)C23CC[C@@]1(C)C3` (stereo partly drawn), for which the GI50 in the test with 786-0 is 16.3 µM (inactive); with A549 it was 24.5 µM (inactive); with CAKI-1, 16.9 µM (inactive); with CCRF-CEM, > 100 µM (inactive); in the test with HCT-116 it was 17.3 µM (inactive); with HOP-62, 19.3 µM (inactive). Further, the GI50 in the test with IGROV-1 was 16.9 µM (inactive); with K562 it was > 100 µM (inactive); in the test on LOX IMVI it was 17.8 µM (inactive); in the test on M14, 18 µM (inactive); in the test with NCI-H522, 12.9 µM (inactive); in the test with RXF 393, 18.9 µM (inactive). In addition, the GI50 was 19.6 µM (inactive) in the test with SF-539; 17.5 µM (inactive) in the test with SN12C; 19.1 µM (inactive) in the test on TK-10; 16.3 µM (inactive) in the test with UACC-62; 19.4 µM (inactive) in the test on UO-31.
